Assay results reported in the supplement of paper PMC10307832.

How the values were obtained:
Assay in all cases: relative viability (nuclei count vs DMSO), 5 days (fraction); higher = more cells survive
Selisistat + Linsitinib = compound: C1CC(C2=C(C1)C3=C(N2)C=CC(=C3)Cl)C(=O)N [Selisistat] + C[C@]1(O)C[C@@H](c2nc(-c3ccc4ccc(-c5ccccc5)nc4c3)c3c(N)nccn32)C1 [Linsitinib] (partner 1 µM)
In short: (§1)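 Values are medians from duplicate plates. Each reflects relative viability, defined as the nuclei count of treated wells over that of vehicle wells. Lung cancer cell lines in 1536-well plates were pin-tool dosed one day after seeding with one drug alone or with a fixed anchor-drug dose plus five library-drug doses (not always all listed) in √10 steps, then fixed, stained and imaged at 4× after 5 days.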

Serdemetan + Alpelisib = compound: c1ccc2c(CCNc3ccc(Nc4ccncc4)cc3)c[nH]c2c1 [Serdemetan] + Cc1nc(NC(=O)N2CCC[C@H]2C(N)=O)sc1-c1ccnc(C(C)(C)C(F)(F)F)c1 [Alpelisib] (partner 2 µM)
In short: as §1

Selisistat + Tozasertib = compound: C1CC(C2=C(C1)C3=C(N2)C=CC(=C3)Cl)C(=O)N [Selisistat] + Cc1cc(Nc2cc(N3CCN(C)CC3)nc(Sc3ccc(NC(=O)C4CC4)cc3)n2)n[nH]1 [Tozasertib] (partner 0.1 µM)
In short: as §1

Serdemetan + Foretinib = compound: c1ccc2c(CCNc3ccc(Nc4ccncc4)cc3)c[nH]c2c1 [Serdemetan] + COc1cc2c(Oc3ccc(NC(=O)C4(C(=O)Nc5ccc(F)cc5)CC4)cc3F)ccnc2cc1OCCCN1CCOCC1 [Foretinib] (partner 0.25 µM)
In short: as §1

UMC-11
relative viability (Selisistat + Linsitinib; first compound 0.4 µM): 0.962 | relative viability (Selisistat + Linsitinib; first compound 1.265 µM): 0.935 | relative viability (Selisistat + Linsitinib; first compound 4 µM): 1.06 | relative viability (Selisistat + Linsitinib; first compound 12.65 µM): 0.948 | relative viability (Selisistat + Linsitinib; first compound 40 µM): 1.03 | relative viability (Serdemetan + Alpelisib; first compound 0.04 µM): 0.914 | relative viability (Serdemetan + Alpelisib; first compound 0.1265 µM): 0.988 | relative viability (Serdemetan + Alpelisib; first compound 0.4 µM): 1.01 | relative viability (Serdemetan + Alpelisib; first compound 1.265 µM): 0.751 | relative viability (Serdemetan + Alpelisib; first compound 4 µM): 0.769 | relative viability (Selisistat + Tozasertib; first compound 0.4 µM): 0.212 | relative viability (Selisistat + Tozasertib; first compound 1.265 µM): 0.21 | relative viability (Selisistat + Tozasertib; first compound 4 µM): 0.209 | relative viability (Selisistat + Tozasertib; first compound 12.65 µM): 0.205 | relative viability (Selisistat + Tozasertib; first compound 40 µM): 0.212 | relative viability (Serdemetan + Foretinib; first compound 0.04 µM): 0.919 | relative viability (Serdemetan + Foretinib; first compound 0.1265 µM): 1.02 | relative viability (Serdemetan + Foretinib; first compound 4 µM): 0.828
